Source: ChEMBL document CHEMBL1255272, “In vitro activity of AR-709 against Streptococcus pneumoniae” (2008)
Converted amounts (≈) assume the structure as drawn. Values belong to the compound of their own block, whether it stands above or below them.

Tests used:
Assay type in all cases: functional
Streptococcus pneumoniae [1] = experiment: Antibacterial activity against cotrimoxazole intermediate Streptococcus pneumoniae by microdilution method
Streptococcus pneumoniae [2] = experiment: Antibacterial activity against azithromycin resistant Streptococcus pneumoniae by microdilution method
Streptococcus pneumoniae [3] = experiment: Antibacterial activity against amoxicillin-clavulanic acid susceptible Streptococcus pneumoniae by microdilution method
Streptococcus pneumoniae [4] = experiment: Antibacterial activity against penicillin intermediate Streptococcus pneumoniae by microdilution method
Streptococcus pneumoniae [5] = experiment: Antibacterial activity against cotrimoxazole resistant Streptococcus pneumoniae by microdilution method
Streptococcus pneumoniae [6] = experiment: Antibacterial activity against Streptococcus pneumoniae ATCC 49619 by microdilution method
Streptococcus pneumoniae [7] = experiment: Antibacterial activity against penicillin susceptible Streptococcus pneumoniae by microdilution method
Streptococcus pneumoniae [8] = experiment: Antibacterial activity against amoxicillin-clavulanic acid resistant Streptococcus pneumoniae by microdilution method
Streptococcus pneumoniae [9] = experiment: Antibacterial activity against azithromycin susceptible Streptococcus pneumoniae by microdilution method
Streptococcus pneumoniae [10] = experiment: Antibacterial activity against penicillin resistant Streptococcus pneumoniae by microdilution method
Streptococcus pneumoniae [11] = experiment: Antibacterial activity against multidrug resistant Streptococcus pneumoniae by microdilution method
Streptococcus pneumoniae [12] = experiment: Antibacterial activity against Streptococcus pneumoniae by microdilution method
Streptococcus pneumoniae [13] = experiment: Antibacterial activity against cotrimoxazole susceptible Streptococcus pneumoniae by microdilution method
Streptococcus pneumoniae [14] = experiment: Antibacterial activity against Streptococcus pneumoniae assessed as resistant isolates by microdilution method
Streptococcus pneumoniae [15] = experiment: Antibacterial activity against Streptococcus pneumoniae assessed as susceptible isolates by microdilution method in presence of beta lactamase inhibitor clavulanic acid
Streptococcus pneumoniae [16] = experiment: Antibacterial activity against Streptococcus pneumoniae assessed as resistant isolates by microdilution method in presence of beta lactamase inhibitor clavulanic acid
Streptococcus pneumoniae [17] = experiment: Antibacterial activity against Streptococcus pneumoniae by microdilution method in presence of beta lactamase inhibitor clavulanic acid
Streptococcus pneumoniae [18] = experiment: Antibacterial activity against Streptococcus pneumoniae assessed as susceptible isolates by microdilution method

SMILES: COc1cc(Cc2cnc(N)nc2N)c2cc(Cc3c(C(=O)N(C)C)[nH]c4ccc(Cl)cc34)oc2c1OC
MIC50 (Streptococcus pneumoniae [1]): ≤ 0.015 µg/mL
MIC90 (Streptococcus pneumoniae [1]): 0.06 µg/mL (≈ 0.112 µM)
MIC50 (Streptococcus pneumoniae [2]): 0.06 µg/mL (≈ 0.112 µM)
MIC90 (Streptococcus pneumoniae [2]): 0.25 µg/mL (≈ 0.467 µM)
MIC50 (Streptococcus pneumoniae [3]): ≤ 0.015 µg/mL
MIC90 (Streptococcus pneumoniae [3]): 0.06 µg/mL
MIC50 (Streptococcus pneumoniae [4]): 0.03 µg/mL (≈ 0.0561 µM)
MIC90 (Streptococcus pneumoniae [4]): 0.12 µg/mL (≈ 0.224 µM)
MIC50 (Streptococcus pneumoniae [5]): 0.12 µg/mL (≈ 0.224 µM)
MIC90 (Streptococcus pneumoniae [5]): 0.25 µg/mL (≈ 0.467 µM)
MIC (Streptococcus pneumoniae [6]): ≤ 0.015 µg/mL
MIC50 (Streptococcus pneumoniae [7]): ≤ 0.015 µg/mL
MIC90 (Streptococcus pneumoniae [7]): ≤ 0.015 µg/mL
MIC50 (Streptococcus pneumoniae [8]): 0.06 µg/mL
MIC90 (Streptococcus pneumoniae [8]): 0.25 µg/mL
MIC50 (Streptococcus pneumoniae [9]): ≤ 0.015 µg/mL
MIC90 (Streptococcus pneumoniae [9]): 0.12 µg/mL (≈ 0.224 µM)
MIC50 (Streptococcus pneumoniae [10]): 0.06 µg/mL (≈ 0.112 µM)
MIC90 (Streptococcus pneumoniae [10]): 0.25 µg/mL (≈ 0.467 µM)
MIC50 (Streptococcus pneumoniae [11]): 0.12 µg/mL (≈ 0.224 µM)
MIC90 (Streptococcus pneumoniae [11]): 0.25 µg/mL (≈ 0.467 µM)
MIC50 (Streptococcus pneumoniae [12]): 0.03 µg/mL (≈ 0.0561 µM)
MIC90 (Streptococcus pneumoniae [12]): 0.25 µg/mL (≈ 0.467 µM)
MIC50 (Streptococcus pneumoniae [13]): ≤ 0.015 µg/mL
MIC90 (Streptococcus pneumoniae [13]): 0.03 µg/mL (≈ 0.0561 µM)

SMILES: CC1(C)S[C@@H]2[C@H](NC(=O)[C@H](N)c3ccc(O)cc3)C(=O)N2[C@H]1C(=O)O [AMOXICILLIN]
Activity (Streptococcus pneumoniae [14]): 39.7%
Activity (Streptococcus pneumoniae [15]): 55%
Activity (Streptococcus pneumoniae [16]): 39.1%
MIC50 (Streptococcus pneumoniae [17]): 0.25 µg/mL
MIC90 (Streptococcus pneumoniae [17]): 4 µg/mL
Activity (Streptococcus pneumoniae [18]): 55%
MIC50 (Streptococcus pneumoniae [12]): 0.25 µg/mL (≈ 0.684 µM)
MIC90 (Streptococcus pneumoniae [12]): 4 µg/mL (≈ 10.9 µM)

SMILES: CC[C@H]1OC(=O)[C@H](C)[C@@H](O[C@H]2C[C@@](C)(OC)[C@@H](O)[C@H](C)O2)[C@H](C)[C@@H](O[C@@H]2O[C@H](C)C[C@H](N(C)C)[C@H]2O)[C@](C)(O)C[C@@H](C)CN(C)[C@H](C)[C@@H](O)[C@]1(C)O [AZITHROMYCIN]
Activity (Streptococcus pneumoniae [14]): 37.7%
Activity (Streptococcus pneumoniae [18]): 62.3%
MIC50 (Streptococcus pneumoniae [12]): 0.12 µg/mL (≈ 0.16 µM)
MIC90 (Streptococcus pneumoniae [12]): > 8 µg/mL

SMILES: COc1c(N2CCNC(C)C2)c(F)cc2c(=O)c(C(=O)O)cn(C3CC3)c12 (stereo not given) [GATIFLOXACIN]
Activity (Streptococcus pneumoniae [14]): 0.7%
Activity (Streptococcus pneumoniae [18]): 98.7%
MIC50 (Streptococcus pneumoniae [12]): 0.25 µg/mL (≈ 0.666 µM)
MIC90 (Streptococcus pneumoniae [12]): 0.25 µg/mL (≈ 0.666 µM)

SMILES: CC1(C)S[C@@H]2[C@H](NC(=O)Cc3ccccc3)C(=O)N2[C@H]1C(=O)O [PENICILLIN G]
Activity (Streptococcus pneumoniae [14]): 38.4%
Activity (Streptococcus pneumoniae [18]): 41.7%
MIC50 (Streptococcus pneumoniae [12]): 0.25 µg/mL (≈ 0.748 µM)
MIC90 (Streptococcus pneumoniae [12]): 2 µg/mL (≈ 5.98 µM)

SMILES: CC[C@H]1OC(=O)[C@H](C)C(=O)[C@H](C)[C@@H](O[C@@H]2O[C@H](C)C[C@H](N(C)C)[C@H]2O)[C@](C)(OC)C[C@@H](C)C(=O)[C@H](C)[C@H]2N(CCCCn3cnc(-c4cccnc4)c3)C(=O)O[C@]12C [TELITHROMYCIN]
Activity (Streptococcus pneumoniae [14]): 0.7%
Activity (Streptococcus pneumoniae [18]): 98%
MIC90 (Streptococcus pneumoniae [12]): 0.5 µg/mL (≈ 0.616 µM)

MIC50 (Streptococcus pneumoniae [12]): 4 µg/mL (≈ 13.8 µM)
MIC90 (Streptococcus pneumoniae [12]): > 32 µg/mL
SMILES: COc1cc(Cc2cnc(N)nc2N)cc(OC)c1OC [TRIMETHOPRIM]
